Patent US20210323977A1, “PYRROLIDINYL AMIDE COMPOUNDS FOR THE TREATMENT OF AUTOIMMUNE DISEASE” (Hoffmann-La Roche Inc., priority 2018, published 2021)

These compounds were tested against T1, human TLR8 (Homo sapiens, UniProt Q9NR97) (assay: HEK293-Blue-hTLR-8 cells assay). Conditions: HEK293-Blue-hTLR8 cells, SEAP reporter, R848 stimulation, 20 hrs.
T1 sequence (Q9NR97 27-1041): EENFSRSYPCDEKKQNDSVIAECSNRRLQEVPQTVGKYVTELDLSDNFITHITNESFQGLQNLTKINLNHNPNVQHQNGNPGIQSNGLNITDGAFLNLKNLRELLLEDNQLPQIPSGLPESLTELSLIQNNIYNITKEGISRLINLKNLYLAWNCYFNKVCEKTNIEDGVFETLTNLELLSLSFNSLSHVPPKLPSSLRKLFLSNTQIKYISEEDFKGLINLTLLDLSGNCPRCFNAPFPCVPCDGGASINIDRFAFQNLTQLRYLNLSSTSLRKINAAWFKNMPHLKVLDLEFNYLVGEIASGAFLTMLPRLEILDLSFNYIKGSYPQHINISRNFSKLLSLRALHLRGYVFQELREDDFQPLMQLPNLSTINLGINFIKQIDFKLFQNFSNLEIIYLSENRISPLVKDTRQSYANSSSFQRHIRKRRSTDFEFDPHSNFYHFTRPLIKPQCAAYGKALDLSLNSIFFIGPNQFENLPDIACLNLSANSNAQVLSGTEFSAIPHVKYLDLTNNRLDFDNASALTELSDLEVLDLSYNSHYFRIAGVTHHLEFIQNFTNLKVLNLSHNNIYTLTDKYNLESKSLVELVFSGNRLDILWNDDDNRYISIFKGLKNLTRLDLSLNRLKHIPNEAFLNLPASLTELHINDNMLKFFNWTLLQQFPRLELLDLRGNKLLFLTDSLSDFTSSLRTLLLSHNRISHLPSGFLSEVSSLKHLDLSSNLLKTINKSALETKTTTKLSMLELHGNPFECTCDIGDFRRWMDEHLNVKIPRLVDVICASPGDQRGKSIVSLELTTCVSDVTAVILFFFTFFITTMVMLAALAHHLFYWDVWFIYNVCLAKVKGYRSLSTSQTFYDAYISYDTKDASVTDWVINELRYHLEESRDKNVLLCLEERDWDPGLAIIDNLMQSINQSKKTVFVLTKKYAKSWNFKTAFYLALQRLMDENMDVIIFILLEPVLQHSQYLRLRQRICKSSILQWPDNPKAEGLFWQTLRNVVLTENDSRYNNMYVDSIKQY
Format: cell-based
Source text: HEK293-Blue-hTLR-8 Cells Assay:
A stable HEK293-Blue-hTLR-8 cell line was purchased from InvivoGen (Cat. #: hkb-htlr8, San Diego, Calif., USA). These cells were originally designed for studying the stimulation of human TLR8 by monitoring the activation of NF-κB. A SEAP (secreted embryonic alkaline phosphatase) reporter gene was placed under the control of the IFN-β minimal promoter fused to five NF-κB and AP-1-binding sites. The SEAP was induced by activating NF-κB and AP-1 via stimulating HEK-Blue hTLR8 cells with TLR8 ligands. Therefore the reporter expression was declined by TLR8 antagonist under the stimulation of a ligand, such as R848, for incubation of 20 hrs. The cell culture supernatant SEAP reporter activity was determined using QUANTI-Blue™ kit (Cat. #: rep-qb1, Invivogen, San Diego, Ca, USA) at a wavelength of 640 nm, a detection medium that turns purple or blue in the presence of alkaline phosphatase.
HEK293-Blue-hTLR8 cells were incubated at a density of 250,000-450,000 cells/mL in a volume of 170 μL in a 96-well plate in Dulbecco's Modified Eagle's medium (DMEM) containing 4.5 g/L glucose, 50 U/mL penicillin, […], […], 2 mM L-glutamine, 10% (v/v) heat-inactivated fetal bovine serum with addition of 20 μL test compound in a serial dilution in the presence of final DMSO at 1% and 10 sL of 60 uM R848 in above DMEM, perform incubation under 37° C. in a CO2 incubator for 20 hrs. Then 20 μL of the supernatant from each well was incubated with 180 sL Quanti-blue substrate solution at 37° C. for 2 hrs and the absorbance was read at 620˜655 nm using a spectrophotometer. The signalling pathway that TLR8 activation leads to downstream NF-κB activation has been widely accepted, and therefore similar reporter assay was modified for evaluating TLR8 antagonist.
Compound `CN1CCC(NC(=O)[C@@H]2CN(c3ccc(C#N)c4ncccc34)C[C@H]2C2CC2)CC1` (relative stereo) [Example 14, Trans-1-(8-cyano-5-quinolyl)-4-cyclopropyl-N-(1-methyl-4-piperidyl)pyrrolidine-3-carboxamide] has an IC50 of 193 nM. In the case of `CN1CCC(NC(=O)[C@@H]2CN(c3ccc(C#N)c4ncccc34)C[C@H]2C(F)(F)F)CC1` (relative stereo) [Example 17, Trans-1-(8-cyano-5-quinolyl)-N-(1-methyl-4-piperidyl)-4-(trifluoromethyl)pyrrolidine-3-carboxamide], the IC50 is reported as 66 nM. `C[C@@H]1CN(c2ccc(C#N)c3ncccc23)C[C@H]1C(=O)NC1CCN(C)CC1` (relative stereo) [Example 28] gave an IC50 of 52 nM. `CC[C@@H]1CN(c2ccc(C#N)c3ncccc23)C[C@H]1C(=O)NC1CCN(C)CC1` (relative stereo) [Example 29, Trans-1-(8-cyano-5-quinolyl)-4-ethyl-N-(1-methyl-4-piperidyl)pyrrolidine-3-carboxamide] was tested, and the IC50 was 96 nM. `C[C@@H]1CN(c2ccc(C#N)c3ncccc23)C[C@H]1C(=O)N1CCC2(CCNCC2)CC1` (relative stereo) [Example 32, Trans-5-[3-(3,9-diazaspiro[5.5]undecane-3-carbonyl)-4-methyl-pyrrolidin-1-yl]quinoline-8-carbonitrile] gave an IC50 of 213 nM. With `CC(C)[C@@H]1CN(c2ccc(C#N)c3ncccc23)C[C@H]1C(=O)NC1CCN(C)CC1` (relative stereo) [Example 37, Trans-1-(8-cyano-5-quinolyl)-4-isopropyl-N-(1-methyl-4-piperidyl)pyrrolidine-3-carboxamide] the IC50 was 489 nM. Compound `CN1CCC(NC(=O)[C@@H]2CN(c3ccc(C#N)c4ncccc34)C[C@H]2C(F)F)CC1` (relative stereo) [Example 40, Trans-1-(8-cyano-5-quinolyl)-4-(difluoromethyl)-N-(1-methyl-4-piperidyl)pyrrolidine-3-carboxamide] has an IC50 of 134 nM. `N[C@@H]1CCC[C@H](NC(=O)C2CN(c3ccc(C(F)(F)F)c4nccnc34)CC23CC3)C1` (relative stereo) [Example 43, Cis-N-(3-aminocyclohexyl)-5-[8-(trifluoromethyl)quinoxalin-5-yl]-5-azaspiro[2.4]heptane-7-carboxamide] showed an IC50 of 124 nM. With `CN1CCC(NC(=O)[C@@H]2CN(c3ccc(Cl)c4ncccc34)C[C@H]2C(F)(F)F)CC1` (relative stereo) [Example 46, Trans-1-(8-chloro-5-quinolyl)-N-(1-methyl-4-piperidyl)-4-(trifluoromethyl)pyrrolidine-3-carboxamide] the IC50 was 51 nM. For `C[C@@H]1CN(c2ccc(C#N)c3ncccc23)C[C@H]1C(=O)N1CCC2(CCNC2)C1` (relative stereo) [Example 53, Trans-5-[3-(2,7-diazaspiro[4.4]nonane-2-carbonyl)-4-methyl-pyrrolidin-1-yl]quinoline-8-carbonitrile], the IC50 was 225 nM. For `CN1CCC(NC(=O)C2CN(c3ccc(C#N)c4nccnc34)CC23CC3)CC1` (single isomer, unassigned) [Example 7A, 5-(8-Cyanoquinoxalin-5-yl)-N-(1-methyl-4-piperidyl)-5-azaspiro[2.4]heptane-7-carboxamide], the IC50 was 7 nM. For `CN1CCC(NC(=O)C2CN(c3ccc(C#N)c4nccnc34)CC23CC3)CC1` (single isomer, unassigned) [Example 7B, 5-(8-Cyanoquinoxalin-5-yl)-N-(1-methyl-4-piperidyl)-5-azaspiro[2.4]heptane-7-carboxamide], the IC50 was 26 nM. `N#Cc1ccc(N2CC(C(=O)NC3CCCNCC3)C(C(F)(F)F)C2)c2cccnc12` (single isomer, unassigned) [Example 30A, N-(azepan-4-yl)-1-(8-cyano-5-quinolyl)-4-(trifluoromethyl)pyrrolidine-3-carboxamide] gave an IC50 of 67 nM. `N#Cc1ccc(N2CC(C(=O)NC3CCCNCC3)C(C(F)(F)F)C2)c2cccnc12` (single isomer, unassigned) [Example 30B, N-(azepan-4-yl)-1-(8-cyano-5-quinolyl)-4-(trifluoromethyl)pyrrolidine-3-carboxamide] showed an IC50 of 173 nM. Compound `CN1CCC(NC(=O)C2CN(c3ccc(C#N)c4ncccc34)CC23CC3)CC1` (single isomer, unassigned) [Example 41A, 5-(8-Cyano-5-quinolyl)-N-(1-methyl-4-piperidyl)-5-azaspiro[2.4]heptane-7-carboxamide] has an IC50 of 191 nM. `C[C@@H]1CN(c2ccc(C#N)c3ncccc23)C[C@H]1C(=O)NC1CCCNCC1` (single isomer, unassigned) [Example 52A, Trans-N-(azepan-4-yl)-1-(8-cyano-5-quinolyl)-4-methyl-pyrrolidine-3-carboxamide] gave an IC50 of 225 nM. Work on `C[C@@H]1CN(c2ccc(C#N)c3ncccc23)C[C@H]1C(=O)NC1CCCNCC1` (single isomer, unassigned) [Example 52B, Trans-N-(azepan-4-yl)-1-(8-cyano-5-quinolyl)-4-methyl-pyrrolidine-3-carboxamide] yielded an IC50 of 274 nM. For `N#Cc1ccc(N2CC(C(=O)NC[C@H]3CNCCO3)C3(CC3)C2)c2nccnc12` (single isomer, unassigned) [Example 70A], the IC50 was 34 nM. For `N#Cc1ccc(N2CC(C(=O)NC[C@H]3CNCCO3)C3(CC3)C2)c2nccnc12` (single isomer, unassigned) [Example 70B], the IC50 was 168 nM. For `N#Cc1ccc(N2CC(C(=O)NC[C@@H]3CNCCO3)C3(CC3)C2)c2nccnc12` (single isomer, unassigned) [Example 71A], the IC50 was 75 nM. `N#Cc1ccc(N2CC(C(=O)NC[C@@H]3CNCCO3)C3(CC3)C2)c2nccnc12` (single isomer, unassigned) [Example 71B] gave an IC50 of 134 nM. With `CN1CCC(NC(=O)[C@H]2CN(c3ccc(C#N)c4nccnc34)C[C@@H]2C(F)(F)F)CC1` [Example 1, (3R,4R)-1-(8-cyanoquinoxalin-5-yl)-N-(1-methyl-4-piperidyl)-4-(trifluoromethyl) pyrrolidine-3-carboxamide] the IC50 was 13 nM. `CN1CCC(NC(=O)[C@H]2CN(c3ccc(C(F)(F)F)c4nccnc34)C[C@@H]2C(F)(F)F)CC1` [Example 2, (3R,4R)—N-(1-methyl-4-piperidyl)-4-(trifluoromethyl)-1-[8-(trifluoromethyl)quinoxalin-5-yl]pyrrolidine-3-carboxamide] was tested, and the IC50 was 18 nM. `C[C@H]1CN(c2ccc(C#N)c3nccnc23)C[C@@H]1C(=O)NC1CCN(C)CC1` [Example 3, (3R,4R)-1-(8-cyanoquinoxalin-5-yl)-4-methyl-N-(1-methyl-4-piperidyl)pyrrolidine-3-carboxamide] showed an IC50 of 5 nM. `CN1CCC(NC(=O)[C@H]2CN(c3ccc(C#N)c4ncccc34)C[C@@H]2C(F)(F)F)CC1` [Example 4, (3R,4R)-1-(8-cyano-5-quinolyl)-N-(1-methyl-4-piperidyl)-4-(trifluoromethyl)pyrrolidine-3-carboxamide] was tested, and the IC50 was 25 nM. Work on `C[C@H]1CN(c2ccc(C(F)(F)F)c3nccnc23)C[C@@H]1C(=O)NC1CCN(C)CC1` [Example 5, (3R,4R)-4-methyl-N-(1-methyl-4-piperidyl)-1-[8-(trifluoromethyl)quinoxalin-5-yl]pyrrolidine-3-carboxamide] yielded an IC50 of 11 nM.
